These results are taken from patent publication US12685735B2 (Foghorn Therapeutics Inc., priority 2020, dated 2026).

What is called IC50 is the concentration that gives 50% inhibition.

In assay [1] the target is BRM (Homo sapiens, UniProt P51531). Briefly: ATPase catalytic activity assay of BRM (ADP-Glo). The note with it: for IC50: read-out: BRM IC50 (μM)*. It counts as biochemical. The method, boiled down:
(§1)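 Luminescent ADP-Glo readout of ADP generated by ATP hydrolysis. Post-reaction: ATP depletion reagent, RT 40 min; detection reagent converting ADP→ATP, RT 60 min; luminescence read.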

Assay [2] concerns the target BRG-1 (Homo sapiens, UniProt P51532). The experiment in a line: ATPase catalytic activity assay of BRG-1 (ADP-Glo). It counts as biochemical. The note with it: ATPase catalytic activity, ADP-Glo; for IC50: read-out: BRG1 IC50 (μM)*; for Emax: read-out: BRG1 Max % Inhibition. A digest of the protocol:
as §1
Background: ADP-Glo first removes unused ATP, then detects ADP through luciferase.

Where two headings read alike, the source gives them in different places.

Chain of BRM (P51531 whole entry): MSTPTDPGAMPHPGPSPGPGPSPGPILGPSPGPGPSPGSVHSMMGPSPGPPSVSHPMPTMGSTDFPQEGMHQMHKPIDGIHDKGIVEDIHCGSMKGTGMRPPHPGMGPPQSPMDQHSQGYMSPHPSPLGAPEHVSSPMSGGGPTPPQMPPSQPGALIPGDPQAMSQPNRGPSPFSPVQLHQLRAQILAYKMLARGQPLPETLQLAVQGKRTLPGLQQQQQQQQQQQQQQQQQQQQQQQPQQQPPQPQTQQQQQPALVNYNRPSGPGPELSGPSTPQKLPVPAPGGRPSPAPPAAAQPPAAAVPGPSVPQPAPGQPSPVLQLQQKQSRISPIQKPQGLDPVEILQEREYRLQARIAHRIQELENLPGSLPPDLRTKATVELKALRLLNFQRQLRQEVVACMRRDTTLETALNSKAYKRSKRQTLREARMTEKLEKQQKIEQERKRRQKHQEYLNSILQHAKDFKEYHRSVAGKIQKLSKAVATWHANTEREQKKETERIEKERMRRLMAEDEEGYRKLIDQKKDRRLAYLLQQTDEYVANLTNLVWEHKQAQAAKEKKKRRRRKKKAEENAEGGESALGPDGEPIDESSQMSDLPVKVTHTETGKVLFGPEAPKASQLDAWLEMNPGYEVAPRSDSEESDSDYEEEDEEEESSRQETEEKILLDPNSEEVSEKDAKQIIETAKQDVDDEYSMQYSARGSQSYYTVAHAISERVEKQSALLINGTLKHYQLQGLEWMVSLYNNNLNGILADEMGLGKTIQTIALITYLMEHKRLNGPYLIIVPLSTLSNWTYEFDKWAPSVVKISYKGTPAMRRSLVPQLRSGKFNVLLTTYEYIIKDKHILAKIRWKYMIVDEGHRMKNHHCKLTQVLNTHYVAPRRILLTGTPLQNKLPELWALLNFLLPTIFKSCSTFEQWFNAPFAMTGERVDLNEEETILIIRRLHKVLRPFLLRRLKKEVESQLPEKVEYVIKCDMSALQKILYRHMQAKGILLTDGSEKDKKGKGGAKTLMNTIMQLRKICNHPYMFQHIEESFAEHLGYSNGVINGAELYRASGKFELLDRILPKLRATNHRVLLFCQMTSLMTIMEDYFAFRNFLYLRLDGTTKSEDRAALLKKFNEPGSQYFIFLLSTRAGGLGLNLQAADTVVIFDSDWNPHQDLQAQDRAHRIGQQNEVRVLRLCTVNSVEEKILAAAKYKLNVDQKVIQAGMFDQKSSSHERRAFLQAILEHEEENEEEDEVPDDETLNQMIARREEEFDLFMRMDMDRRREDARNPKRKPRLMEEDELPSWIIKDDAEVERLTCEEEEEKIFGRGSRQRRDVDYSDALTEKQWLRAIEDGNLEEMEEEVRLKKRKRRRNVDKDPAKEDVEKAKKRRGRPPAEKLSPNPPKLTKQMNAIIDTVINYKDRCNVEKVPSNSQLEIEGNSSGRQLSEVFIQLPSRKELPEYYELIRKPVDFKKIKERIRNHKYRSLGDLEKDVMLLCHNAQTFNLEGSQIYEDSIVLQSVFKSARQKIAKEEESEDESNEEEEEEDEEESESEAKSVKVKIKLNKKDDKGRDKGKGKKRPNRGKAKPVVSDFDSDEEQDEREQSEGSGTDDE
Chain of BRG-1 (P51532 whole entry): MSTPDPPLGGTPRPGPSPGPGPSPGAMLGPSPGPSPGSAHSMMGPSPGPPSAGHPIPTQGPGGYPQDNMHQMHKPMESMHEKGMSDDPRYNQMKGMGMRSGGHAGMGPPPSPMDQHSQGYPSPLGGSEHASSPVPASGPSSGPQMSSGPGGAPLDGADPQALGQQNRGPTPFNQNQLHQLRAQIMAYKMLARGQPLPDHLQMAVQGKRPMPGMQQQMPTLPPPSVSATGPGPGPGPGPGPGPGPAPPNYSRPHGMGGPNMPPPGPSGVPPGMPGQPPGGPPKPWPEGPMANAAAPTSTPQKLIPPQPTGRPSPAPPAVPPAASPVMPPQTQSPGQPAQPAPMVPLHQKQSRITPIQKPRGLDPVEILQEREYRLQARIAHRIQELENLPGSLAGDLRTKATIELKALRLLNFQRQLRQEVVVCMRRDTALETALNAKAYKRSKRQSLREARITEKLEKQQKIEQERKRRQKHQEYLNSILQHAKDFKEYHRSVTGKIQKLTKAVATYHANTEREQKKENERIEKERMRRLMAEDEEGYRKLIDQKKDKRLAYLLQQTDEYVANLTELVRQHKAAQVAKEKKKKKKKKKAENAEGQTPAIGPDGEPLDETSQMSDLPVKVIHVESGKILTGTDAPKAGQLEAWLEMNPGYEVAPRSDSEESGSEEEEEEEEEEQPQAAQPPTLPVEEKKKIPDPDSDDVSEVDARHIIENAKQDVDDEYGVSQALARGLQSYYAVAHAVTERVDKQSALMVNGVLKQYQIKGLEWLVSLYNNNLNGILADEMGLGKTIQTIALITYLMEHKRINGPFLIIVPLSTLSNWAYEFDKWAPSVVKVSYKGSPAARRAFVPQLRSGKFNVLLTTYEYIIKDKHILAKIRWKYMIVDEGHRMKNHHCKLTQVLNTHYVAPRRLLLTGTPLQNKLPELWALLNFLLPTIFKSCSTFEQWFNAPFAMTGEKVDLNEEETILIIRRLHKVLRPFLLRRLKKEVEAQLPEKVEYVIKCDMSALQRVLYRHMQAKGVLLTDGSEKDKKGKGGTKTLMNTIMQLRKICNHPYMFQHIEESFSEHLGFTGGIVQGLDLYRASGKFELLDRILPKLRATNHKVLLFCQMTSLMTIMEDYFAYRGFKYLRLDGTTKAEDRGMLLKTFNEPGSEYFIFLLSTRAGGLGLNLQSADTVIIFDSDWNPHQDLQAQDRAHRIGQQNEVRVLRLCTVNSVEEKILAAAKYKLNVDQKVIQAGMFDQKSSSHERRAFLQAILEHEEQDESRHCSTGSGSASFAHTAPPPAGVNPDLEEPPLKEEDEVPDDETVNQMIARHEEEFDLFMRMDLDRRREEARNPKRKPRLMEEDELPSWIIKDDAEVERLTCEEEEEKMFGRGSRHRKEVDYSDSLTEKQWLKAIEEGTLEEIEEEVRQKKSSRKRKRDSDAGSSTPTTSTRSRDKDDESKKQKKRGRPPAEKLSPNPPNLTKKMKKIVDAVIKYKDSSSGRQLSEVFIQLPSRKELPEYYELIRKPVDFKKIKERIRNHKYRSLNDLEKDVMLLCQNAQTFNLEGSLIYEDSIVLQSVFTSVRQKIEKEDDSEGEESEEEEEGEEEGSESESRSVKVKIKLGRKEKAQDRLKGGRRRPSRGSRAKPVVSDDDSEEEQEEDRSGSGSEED

For the compound `COc1cccc(-c2csc(NC(=O)CNC(=O)c3ccc4c(c3)[C@](C)(C#N)COC4)n2)c1F` [Compound 402, (R)-4-cyano-N-(2-((4-(2-fluoro-3-methoxyphenyl)thiazol-2-yl)amino)-2-oxoethyl)-4-methylisochromane-6-carboxamide], in assay [1], the “BRM Max % Inhibition” value is greater than 95% and the IC50 was less than 0.1 µM. Further, in assay [2], the IC50 was less than 0.1 µM and the Emax was greater than 95%.

Regarding `C[C@@H]1CN(c2cccc(-c3csc(NC(=O)CNC(=O)c4ccc5c(c4)[C@](C)(CO)CN5C)n3)c2)C[C@H](C)O1` [Compound 403, (S)-N-(2-((4-(3-((cis)-2,6-dimethylmorpholino)phenyl)thiazol-2-yl)amino)-2-oxoethyl)-3-(hydroxymethyl)-1,3-dimethylindoline-5-carboxamide], in assay [1], the “BRM Max % Inhibition” value is reported as greater than 90% and the 50% inhibitory concentration (IC50) was 0.1 to 1 µM. In addition, in assay [2], the IC50 lay in the range of 1 to 5 µM and the Emax is greater than 90%.

For the compound `C[C@@H]1CN(c2cccc(-c3csc(NC(=O)CNC(=O)c4ccc5c(c4)[C@@](C)(CO)CN5C)n3)c2)C[C@H](C)O1` [Compound 404, (R)-N-(2-((4-(3-((cis)-2,6-dimethylmorpholino)phenyl)thiazol-2-yl)amino)-2-oxoethyl)-3-(hydroxymethyl)-1,3-dimethylindoline-5-carboxamide], in assay [1], the “BRM Max % Inhibition” value is greater than 80% and the IC50 is 0.1 to 1 µM. In assay [2], the IC50 was greater than 5 µM and the Emax is greater than 80%.

For the compound `C[C@@H]1CN(c2cccc(-c3csc(NC(=O)CNC(=O)c4ccc5c(c4)C4(CC4)COC5)n3)n2)C[C@H](C)O1` [Compound 406, N-(2-((4-(6-((cis)-2,6-dimethylmorpholino)pyridin-2-yl)thiazol-2-yl)amino)-2-oxoethyl)spiro[cyclopropane-1,4′-isochromane]-6′-carboxamide], in assay [1], the “BRM Max % Inhibition” value is greater than 95% and the IC50 is less than 0.1 µM. Also, in assay [2], the IC50 was in the range of 0.1 to 1 µM and the Emax was greater than 95%.

For the compound `C[C@@H]1CN(c2cccc(-c3csc(NC(=O)CNC(=O)c4cccc([C@]5(C)COC[C@H]5O)c4)n3)n2)C[C@H](C)O1` [Compound 408], in assay [1], the “BRM Max % Inhibition” value is on record as greater than 90% and the half-maximal inhibitory concentration (IC50) was in the range of 0.1 to 1 µM. Besides, in assay [2], the IC50 lay within 1 to 5 µM and the Emax is greater than 90%.

Consider `C[C@@H]1CN(c2cccc(-c3csc(NC(=O)CNC(=O)c4ccc5c(c4)[C@](C)(F)COC5)n3)n2)C[C@H](C)O1` [Compound 409, (S)-N-(2-((4-(6-((cis)-2,6-dimethylmorpholino)pyridin-2-yl)thiazol-2-yl)amino)-2-oxoethyl)-4-fluoro-4-methylisochromane-6-carboxamide], for which, in assay [1], the “BRM Max % Inhibition” value is given as greater than 95% and the IC50 is less than 0.1 µM. Further, in assay [2], the 50% inhibitory concentration (IC50) was less than 0.1 µM and the Emax was greater than 95%.

Regarding `C[C@@H]1CN(c2cccc(-c3csc(NC(=O)CNC(=O)c4ccc5c(c4)[C@@]4(COC5)CC4(F)F)n3)n2)C[C@H](C)O1` [Compound 410, (R)-N-(2-((4-(6-((cis)-2,6-dimethylmorpholino)pyridin-2-yl)thiazol-2-yl)amino)-2-oxoethyl)-2,2-difluorospiro[cyclopropane-1,4′-isochromane]-6′-carboxamide], in assay [1], the “BRM Max % Inhibition” value is listed as greater than 95% and the half-maximal inhibitory concentration (IC50) is less than 0.1 µM. Besides, in assay [2], the IC50 was 1 to 5 µM and the Emax was greater than 95%.

Consider `C[C@@H]1CN(c2cccc(-c3csc(NC(=O)CNC(=O)c4ccc5c(c4)[C@]4(COC5)CC4(F)F)n3)n2)C[C@H](C)O1` [Compound 411, (S)-N-(2-((4-(6-((cis)-2,6-dimethylmorpholino)pyridin-2-yl)thiazol-2-yl)amino)-2-oxoethyl)-2,2-difluorospiro[cyclopropane-1,4′-isochromane]-6′-carboxamide], for which, in assay [1], the “BRM Max % Inhibition” value is recorded as greater than 90% and the IC50 lay in the range of 0.1 to 1 µM. For the same compound, in assay [2], the IC50 was greater than 5 µM and the Emax was greater than 90%.

Consider `C[C@@H]1CN(c2cccc(-c3csc(NC(=O)CNC(=O)c4ccc5c(c4)[C@@](C)(F)COC5)n3)n2)C[C@H](C)O1` [Compound 412, (R)-N-(2-((4-(6-((cis)-2,6-dimethylmorpholino)pyridin-2-yl)thiazol-2-yl)amino)-2-oxoethyl)-4-fluoro-4-methylisochromane-6-carboxamide], for which, in assay [1], the “BRM Max % Inhibition” value is greater than 90% and the half-maximal inhibitory concentration (IC50) was in the range of 0.1 to 1 µM. Also, in assay [2], the IC50 lay in the range of 0.1 to 1 µM and the Emax was greater than 90%.

In the case of `COc1cccc(-c2csc(NC(=O)CNC(=O)c3ccc4c(c3)C(C)(C#N)CCN4)n2)c1` (stereo not shown) [Compound 415, 4-cyano-N-(2-((4-(3-methoxyphenyl)thiazol-2-yl)amino)-2-oxoethyl)-4-methyl-1,2,3,4-tetrahydroquinoline-6-carboxamide], in assay [1] (30 nM BRM, 400 μM ATP), the “BRM Max % Inhibition” value is on record as greater than 90% and the IC50 fell in the range of 0.1 to 1 µM. Also, in assay [2] (30 nM BRG-1, 400 μM ATP), the IC50 was greater than 5 µM and the Emax was greater than 90%.

Consider `C[C@@H]1CN(c2cccc(-c3csc(NC(=O)CNC(=O)c4cccc(C5(C#N)COC5)c4)n3)c2)C[C@H](C)O1` [Compound 418, 3-(3-cyanooxetan-3-yl)-N-(2-((4-(3-((cis)-2,6-dimethylmorpholino)phenyl)thiazol-2-yl)amino)-2-oxoethyl)benzamide], for which, in assay [1] (30 nM BRM, 400 μM ATP), the “BRM Max % Inhibition” value is recorded as greater than 95% and the IC50 was less than 0.1 µM. Further, in assay [2] (30 nM BRG-1, 400 μM ATP), the IC50 lay in the range of 0.1 to 1 µM and the Emax is greater than 95%.

For `C[C@@H]1CN(c2cccc(-c3csc(NC(=O)CNC(=O)c4cccc(C5(C(F)F)COC5)c4)n3)c2)C[C@H](C)O1` [Compound 419, 3-(3-(difluoromethyl)oxetan-3-yl)-N-(2-((4-(3-((cis)-2,6-dimethylmorpholino)phenyl)thiazol-2-yl)amino)-2-oxoethyl)benzamide], in assay [1] (30 nM BRM, 400 μM ATP), the “BRM Max % Inhibition” value is greater than 95% and the IC50 is less than 0.1 µM. Further, in assay [2] (30 nM BRG-1, 400 μM ATP), the IC50 lay in the range of 0.1 to 1 µM and the Emax was greater than 95%.

Take `CO[C@H]1C[C@@](F)(c2cccc(C(=O)NCC(=O)Nc3nc(-c4cccc(N5C[C@@H](C)O[C@@H](C)C5)n4)cs3)c2)C1` [Compound 426, N-(2-((4-(6-((cis)-2,6-dimethylmorpholino)pyridin-2-yl)thiazol-2-yl)amino)-2-oxoethyl)-3-((cis)-1-fluoro-3-methoxycyclobutyl)benzamide]: in assay [1] (30 nM BRM, 400 μM ATP), the “BRM Max % Inhibition” value is greater than 95% and the IC50 is 0.1 to 1 µM. Moreover, in assay [2] (30 nM BRG-1, 400 μM ATP), the half-inhibitory concentration (IC50) was in the range of 1 to 5 µM and the Emax is greater than 95%.

As for `Cn1ccc2ccc(-c3csc(NC(=O)CNC(=O)c4ccc5c(c4)[C@@](C)(C#N)CCO5)n3)cc2c1=O` [Compound 433, (S)-4-cyano-4-methyl-N-(2-((4-(2-methyl-1-oxo-1,2-dihydroisoquinolin-7-yl)thiazol-2-yl)amino)-2-oxoethyl)chromane-6-carboxamide], in assay [1] (30 nM BRM, 400 μM ATP), the “BRM Max % Inhibition” value is greater than 95% and the IC50 is less than 0.1 µM. In assay [2] (30 nM BRG-1, 400 μM ATP), the half-maximal inhibitory concentration (IC50) lay within 0.1 to 1 µM and the Emax is greater than 95%.

`C[C@@H]1CN(c2cccc(-c3csc(NC(=O)[C@H](CO)NC(=O)c4ccnc(C(C)(C)C)c4)n3)c2)C[C@H](C)O1` [Compound 434, 2-(tert-butyl)-N-((S)-1-((4-(3-((cis)-2,6-dimethylmorpholino)phenyl)thiazol-2-yl)amino)-3-hydroxy-1-oxopropan-2-yl)isonicotinamide]: in assay [1] (30 nM BRM, 400 μM ATP), the “BRM Max % Inhibition” value is listed as greater than 90% and the IC50 lay within 0.1 to 1 µM. Further, in assay [2] (30 nM BRG-1, 400 μM ATP), the half-maximal inhibitory concentration (IC50) was in the range of 1 to 5 µM and the Emax was greater than 90%.

For `C[C@@H]1CN(c2cccc(-c3csc(NC(=O)[C@H](C)NC(=O)c4ccnc(C(C)(C)C)c4)n3)c2)C[C@H](C)O1` [Compound 435, 2-(tert-butyl)-N-((S)-1-((4-(3-((cis)-2,6-dimethylmorpholino)phenyl)thiazol-2-yl)amino)-1-oxopropan-2-yl)isonicotinamide], in assay [1] (30 nM BRM, 400 μM ATP), the “BRM Max % Inhibition” value is listed as greater than 95% and the half-maximal inhibitory concentration (IC50) lay in the range of 0.1 to 1 µM. In assay [2] (30 nM BRG-1, 400 μM ATP), the concentration for half-maximal inhibition (IC50) is 1 to 5 µM and the Emax was greater than 95%.

On to `COC[C@H](NC(=O)c1ccnc(C(C)(C)C)c1)C(=O)Nc1nc(-c2cccc(N3C[C@@H](C)O[C@@H](C)C3)c2)cs1` [Compound 436, 2-(tert-butyl)-N-((S)-1-((4-(3-((cis)-2,6-dimethylmorpholino)phenyl)thiazol-2-yl)amino)-3-methoxy-1-oxopropan-2-yl)isonicotinamide], for which, in assay [1] (30 nM BRM, 400 μM ATP), the “BRM Max % Inhibition” value is given as greater than 90% and the IC50 fell in the range of 0.1 to 1 µM. In assay [2] (30 nM BRG-1, 400 μM ATP), the IC50 fell in the range of 1 to 5 µM and the Emax is greater than 90%.

With `C[C@@H]1CN(c2cccc(-c3csc(NC(=O)CNC(=O)c4ccc5c(c4)[C@@](C)(O)COC5)n3)c2)C[C@H](C)O1` [Compound 437, (R)-N-(2-((4-(3-((cis)-2,6-dimethylmorpholino)phenyl)thiazol-2-yl)amino)-2-oxoethyl)-4-hydroxy-4-methylisochromane-6-carboxamide], in assay [1] (30 nM BRM, 400 μM ATP), the “BRM Max % Inhibition” value was greater than 95% and the IC50 is less than 0.1 µM. For the same compound, in assay [2] (30 nM BRG-1, 400 μM ATP), the 50% inhibitory concentration (IC50) lay within 0.1 to 1 µM and the Emax was greater than 95%.

On to `C[C@@H]1CN(c2cccc(-c3csc(NC(=O)CNC(=O)c4ccc5c(c4)[C@](C)(O)COC5)n3)c2)C[C@H](C)O1` [Compound 438, (S)-N-(2-((4-(3-((cis)-2,6-dimethylmorpholino)phenyl)thiazol-2-yl)amino)-2-oxoethyl)-4-hydroxy-4-methylisochromane-6-carboxamide], for which, in assay [1] (30 nM BRM, 400 μM ATP), the “BRM Max % Inhibition” value is greater than 95% and the IC50 is 0.1 to 1 µM. In addition, in assay [2] (30 nM BRG-1, 400 μM ATP), the IC50 fell in the range of 1 to 5 µM and the Emax is greater than 95%.
